Test results: patent US8258134B2, “Pyridazinone glucokinase activators” (Hoffmann-La Roche Inc., priority 2008, dated 2012)

Target: T1, Recombinant human liver GK1 (GST-GK) (Homo sapiens, UniProt P35557)
T1 construct: made in house; host or cells: E. coli
T1 sequence (P35557 1-466 isoform P35557-2): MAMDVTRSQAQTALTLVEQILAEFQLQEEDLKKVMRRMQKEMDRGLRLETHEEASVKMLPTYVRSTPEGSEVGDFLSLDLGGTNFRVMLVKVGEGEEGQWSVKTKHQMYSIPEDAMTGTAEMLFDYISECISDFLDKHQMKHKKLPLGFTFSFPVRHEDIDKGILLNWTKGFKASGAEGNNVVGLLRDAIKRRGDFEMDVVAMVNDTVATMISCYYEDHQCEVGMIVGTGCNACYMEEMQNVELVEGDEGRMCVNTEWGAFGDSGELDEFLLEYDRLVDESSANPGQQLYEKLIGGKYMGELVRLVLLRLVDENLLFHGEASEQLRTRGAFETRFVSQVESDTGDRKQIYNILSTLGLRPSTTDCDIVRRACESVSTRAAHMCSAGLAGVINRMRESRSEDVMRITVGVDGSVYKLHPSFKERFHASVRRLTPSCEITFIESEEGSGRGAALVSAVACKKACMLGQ
Assay: Glucokinase in vitro assay (G6PDH-coupled NADH generation, OD340)
Assay type: biochemical
Conditions: 5 mM D-glucose, 30° C., pH 7.1, 10% DMSO
Method: Glucokinase In Vitro Assay Protocol: Glucokinase (GK) was assayed by coupling the production of glucose-6-phosphate to the generation of NADH with glucose-6-phosphate dehydrogenase (G6PDH, 0.75-1 k units/mg; Boehringer Mannheim, Indianapolis, Ind.) from Leuconostoc mesenteroides as the coupling enzyme (Scheme 2):
Recombinant human liver GK1 was expressed in E. coli as a glutathione S-transferase fusion protein (GST-GK) [Liang et al, 1995] and was purified by chromatography over a glutathione-Sepharose 4B affinity column using the procedure provided by the manufacturer (Amersham Pharmacia Biotech, Piscataway, N.J.).
The assay was conducted at 30° C. in a flat bottom 96-well tissue culture plate from Costar (Cambridge, Mass.) with a final incubation volume of 120 μL. The incubation reaction contained the following: 25 mM Hepes buffer (pH 7.1), 25 mM KCl, 5 mM D-glucose, 1 mM ATP, 1.8 mM NAD, 2 mM MgCl2, 1 μM sorbitol-6-phosphate, 1 mM dithiothreitol, test drug or 10% DMSO, ˜7 units/ml G6PDH, and GK (see below). All organic reagents were >98% pure and were from Boehringer Mannheim with the exceptions of D-glucose and Hepes which were from Sigma Chemical Co, St Louis, Mo. Test compounds were dissolved in DMSO and were added to the incubation reaction minus GST-GK in a volume of 12 μL to yield a final DMSO concentration of 10%. This mix was pre-incubated in the temperature controlled chamber of a SPECTRAmax 250 microplate spectrophotometer (Molecular Devices Corporation, Sunnyvale, Calif.) for 10 minutes to allow temperature equilibrium and then the reaction was started by the addition of 20 μL GST-GK.
After addition of enzyme, the increase in optical density (OD) at 340 nm was monitored spectrophotometrically to determine the rate of change (OD340 per min). The GK activity (OD340/min) in control wells (10% DMSO minus GK activators) was compared with the activity in wells containing test GK activators, and the concentration of activator that produced a 50% increase in the activity of GK, i.e., the SC1.5, was calculated. The table below provides the in vitro glucokinase activity for the compounds in the Examples: […]

SMILES: O=C(Nc1cnc(C(O)CO)cn1)C(CC1CCCC1)n1ncc(Oc2c(F)cccc2F)cc1=O (stereo in doubt) [Example 106, 3-Cyclopentyl-2-[4-(2,6-difluoro-phenoxy)-6-oxo-6H-pyridazin-1-yl]-N-[5-((R)-1,2-dihydroxy-ethyl)-pyrazin-2-yl]-propionamide]
- SC1.5 average (concentration of activator that produced a 50% increase in the activity of GK): 0.082 µM

SMILES: CC(C)(O)Cn1ccc(NC(=O)C(CC2CCCC2)n2ncc(Oc3ccccc3)cc2=O)n1 (stereo not drawn) [Example 1, 3-Cyclopentyl-N-[1-(2-hydroxy-2-methyl-propyl)-1H-pyrazol-3-yl]-2-(6-oxo-4-phenoxy-6H-pyridazin-1-yl)-propionamide]
- SC1.5 average (concentration of activator that produced a 50% increase in the activity of GK): 0.707 µM

SMILES: Cc1nsc(NC(=O)C(CC2CCCC2)n2ncc(Oc3ccccc3)cc2=O)n1 (stereo not drawn) [Example 3, 3-Cyclopentyl-N-(3-methyl-[1,2,4]thiadiazol-5-yl)-2-(6-oxo-4-phenoxy-6H-pyridazin-1-yl)-propionamide]
- SC1.5 average (concentration of activator that produced a 50% increase in the activity of GK): 2.07 µM

SMILES: Cc1nnc(NC(=O)C(CC2CCCC2)n2ncc(Oc3ccccc3)cc2=O)s1 (stereo not drawn) [Example 4, 3-Cyclopentyl-N-(5-methyl-[1,3,4]thiadiazol-2-yl)-2-(6-oxo-4-phenoxy-6H-pyridazin-1-yl)-propionamide]
- SC1.5 average (concentration of activator that produced a 50% increase in the activity of GK): 6.205 µM

SMILES: CC(C)(O)Cn1ccc(NC(=O)C(CC2CCCC2)n2ncc(Oc3ccc(C(F)(F)F)cc3)cc2=O)n1 (stereo not drawn) [Example 5, 3-Cyclopentyl-N-[1-(2-hydroxy-2-methyl-propyl)-1H-pyrazol-3-yl]-2-[6-oxo-4-(4-trifluoromethyl-phenoxy)-6H-pyridazin-1-yl]-propionamide]
- SC1.5 average (concentration of activator that produced a 50% increase in the activity of GK): 2.267 µM

SMILES: CC(C)(O)Cn1ccc(NC(=O)C(CC2CCCC2)n2ncc(Oc3cccc(C(F)(F)F)c3)cc2=O)n1 (stereo not drawn) [Example 6, 3-Cyclopentyl-N-[1-(2-hydroxy-2-methyl-propyl)-1H-pyrazol-3-yl]-2-[6-oxo-4-(3-trifluoromethyl-phenoxy)-6H-pyridazin-1-yl]-propionamide]
- SC1.5 average (concentration of activator that produced a 50% increase in the activity of GK): 0.844 µM

SMILES: COc1cccc(Oc2cnn(C(CC3CCCC3)C(=O)Nc3ccn(CC(C)(C)O)n3)c(=O)c2)c1 (stereo not drawn) [Example 7, 3-Cyclopentyl-N-[1-(2-hydroxy-2-methyl-propyl)-1H-pyrazol-3-yl]-2-[4-(3-methoxy-phenoxy)-6-oxo-6H-pyridazin-1-yl]-propionamide]
- SC1.5 average (concentration of activator that produced a 50% increase in the activity of GK): 0.428 µM

SMILES: CC(C)(O)Cn1ccc(NC(=O)C(CC2CCCC2)n2ncc(OCC3CCCC3)cc2=O)n1 (stereo not drawn) [Example 9, 3-Cyclopentyl-2-(4-cyclopentylmethoxy-6-oxo-6H-pyridazin-1-yl)-N-[1-(2-hydroxy-2-methyl-propyl)-1H-pyrazol-3-yl]-propionamide]
- SC1.5 average (concentration of activator that produced a 50% increase in the activity of GK): 1.548 µM

SMILES: CC(C)(O)Cn1ccc(NC(=O)C(CC2CCCC2)n2ncc(OCC3CCCC3)c(Cl)c2=O)n1 (stereo not drawn) [Example 10, 2-(5-Chloro-4-cyclopentylmethoxy-6-oxo-6H-pyridazin-1-yl)-3-cyclopentyl-N-[1-(2-hydroxy-2-methyl-propyl)-1H-pyrazol-3-yl]-propionamide]
- SC1.5 average (concentration of activator that produced a 50% increase in the activity of GK): 11.438 µM

SMILES: CC(C)(O)Cn1ccc(NC(=O)[C@H](CC2CCCC2)n2ncc(Oc3ccccc3C(F)(F)F)cc2=O)n1 [Example 11A, (S)-3-Cyclopentyl-N-[1-(2-hydroxy-2-methyl-propyl)-1H-pyrazol-3-yl]-2-[6-oxo-4-(2-trifluoromethyl-phenoxy)-6H-pyridazin-1-yl]-propionamide]
- SC1.5 average (concentration of activator that produced a 50% increase in the activity of GK): 0.099 µM

SMILES: CC(C)(O)Cn1ccc(NC(=O)[C@@H](CC2CCCC2)n2ncc(Oc3ccccc3C(F)(F)F)cc2=O)n1 [Example 11B, (R)-3-Cyclopentyl-N-[1-(2-hydroxy-2-methyl-propyl)-1H-pyrazol-3-yl]-2-[6-oxo-4-(2-trifluoromethyl-phenoxy)-6H-pyridazin-1-yl]-propionamide]
- SC1.5 average (concentration of activator that produced a 50% increase in the activity of GK): 6.893 µM

SMILES: COc1ccc(Oc2cnn(C(CC3CCCC3)C(=O)Nc3ccn(CC(C)(C)O)n3)c(=O)c2)cc1 (stereo not drawn) [Example 15, 3-Cyclopentyl-N-[1-(2-hydroxy-2-methyl-propyl)-1H-pyrazol-3-yl]-2-[4-(4-methoxy-phenoxy)-6-oxo-6H-pyridazin-1-yl]-propionamide]
- SC1.5 average (concentration of activator that produced a 50% increase in the activity of GK): 1.025 µM

SMILES: COC(=O)c1cc(NC(=O)C(CC2CCCC2)n2ncc(Oc3ccccc3C(F)(F)F)cc2=O)nn1C (stereo not drawn) [Example 16, 5-{3-Cyclopentyl-2-[6-oxo-4-(2-trifluoromethyl-phenoxy)-6H-pyridazin-1-yl]-propionylamino}-2-methyl-2H-pyrazole-3-carboxylic acid methyl ester]
- SC1.5 average (concentration of activator that produced a 50% increase in the activity of GK): 4.548 µM

SMILES: CC(C)(O)Cn1ccc(NC(=O)[C@H](CC2CCCC2)n2ncc(Oc3cccc4c3CCCC4)cc2=O)n1 [Example 17A, (S)-3-Cyclopentyl-N-[1-(2-hydroxy-2-methyl-propyl)-1H-pyrazol-3-yl]-2-[6-oxo-4-(5,6,7,8-tetrahydro-naphthalen-1-yloxy)-6H-pyridazin-1-yl]-propionamide]
- SC1.5 average (concentration of activator that produced a 50% increase in the activity of GK): 0.051 µM

SMILES: CC(C)(O)Cn1ccc(NC(=O)[C@@H](CC2CCCC2)n2ncc(Oc3cccc4c3CCCC4)cc2=O)n1 [Example 17B, (R)-3-Cyclopentyl-N-[1-(2-hydroxy-2-methyl-propyl)-1H-pyrazol-3-yl]-2-[6-oxo-4-(5,6,7,8-tetrahydro-naphthalen-1-yloxy)-6H-pyridazin-1-yl]-propionamide]
- SC1.5 average (concentration of activator that produced a 50% increase in the activity of GK): 9.14 µM

SMILES: CC(C)(O)Cn1ccc(NC(=O)C(CC2CCCC2)n2ncc(Oc3cccc(F)c3)cc2=O)n1 (stereo not drawn) [Example 18, 3-Cyclopentyl-2-[4-(3-fluoro-phenoxy)-6-oxo-6H-pyridazin-1-yl]-N-[1-(2-hydroxy-2-methyl-propyl)-1H-pyrazol-3-yl]-propionamide]
- SC1.5 average (concentration of activator that produced a 50% increase in the activity of GK): 0.634 µM

SMILES: CC(C)(O)Cn1ccc(NC(=O)[C@H](CC2CCCC2)n2ncc(Oc3ccccc3F)cc2=O)n1 [Example 19A, (S)-3-Cyclopentyl-2-[4-(2-fluoro-phenoxy)-6-oxo-6H-pyridazin-1-yl]-N-[1-(2-hydroxy-2-methyl-propyl)-1H-pyrazol-3-yl]-propionamide]
- SC1.5 average (concentration of activator that produced a 50% increase in the activity of GK): 0.104 µM

SMILES: CC(C)(O)Cn1ccc(NC(=O)[C@@H](CC2CCCC2)n2ncc(Oc3ccccc3F)cc2=O)n1 [Example 19B, (R)-3-Cyclopentyl-2-[4-(2-fluoro-phenoxy)-6-oxo-6H-pyridazin-1-yl]-N-[1-(2-hydroxy-2-methyl-propyl)-1H-pyrazol-3-yl]-propionamide]
- SC1.5 average (concentration of activator that produced a 50% increase in the activity of GK): 3.411 µM

SMILES: CC(C)(O)Cn1ccc(NC(=O)C(CC2CCCC2)n2ncc(Oc3cccc4ccccc34)cc2=O)n1 (stereo not drawn) [Example 20]
- SC1.5 average (concentration of activator that produced a 50% increase in the activity of GK): 0.058 µM

SMILES: CC(C)(O)Cn1ccc(NC(=O)C(CC2CCCC2)n2ncc(Oc3ccccc3C3CCCCC3)cc2=O)n1 (stereo not drawn) [Example 21, 2-[4-(2-Cyclohexyl-phenoxy)-6-oxo-6H-pyridazin-1-yl]-3-cyclopentyl-N-[1-(2-hydroxy-2-methyl-propyl)-1H-pyrazol-3-yl]-propionamide]
- SC1.5 average (concentration of activator that produced a 50% increase in the activity of GK): 0.873 µM

SMILES: CC(C)(O)Cn1ccc(NC(=O)[C@H](CC2CCCC2)n2ncc(Oc3ccccc3C3CCCC3)cc2=O)n1 [Example 22A, (S)-3-Cyclopentyl-2-[4-(2-cyclopentyl-phenoxy)-6-oxo-6H-pyridazin-1-yl]-N-[1-(2-hydroxy-2-methyl-propyl)-1H-pyrazol-3-yl]-propionamide]
- SC1.5 average (concentration of activator that produced a 50% increase in the activity of GK): 0.263 µM
